Experimental data reported in patent US8916711B2, “Imidazothiazole-chalcone derivatives as potential anticancer agents and process for the preparation thereof” (Council of Scientific and Industrial Research, priority 2009, dated 2014).

Key:
SR = assay: NCI in vitro cytotoxicity (SRB, 48 h), Leukemia panel; type: cell-based; conditions: Homo sapiens
Method: (§1) The imidazothiazole-chalcone hybrids 7a, 7e, 7f, 8f and 19e have been tested against sixty human tumour cell lines derived from nine cancer types (leukemia, non-small cell lung cancer, colon cancer, CNS cancer, melanoma, ovarian cancer, renal cancer, prostate cancer and breast cancer) as per NCI protocol. For each compound, dose response curves for individual cell lines have been measured at a minimum of five concentrations at 10 fold dilutions. A protocol of 48 h continuous drug exposure has been used, and a sulforhodamine B (SRB) protein assay was used to estimate cell viability or growth. The concentration for 50% cell growth inhibition (GI50), total cell growth inhibition (TGI, 0% growth) and 50% cell death (LC50, […]) compared with the control has been calculated (Table-1).

MCF7 = assay: NCI in vitro cytotoxicity (SRB, 48 h), Breast panel; type: cell-based; conditions: Homo sapiens, MCF7; MCF-7; Table 4; read-out: Comparative efficacy
Method: as §1

MDA-MB-231/ATCC = assay: as above; type: cell-based; conditions: Homo sapiens, Table 4, read-out: Comparative efficacy
Method: as §1

| SMILES | melting point [°C] | other results |
| --- | --- | --- |
| COc1cc(C(=O)/C=C/c2c(C(F)(F)F)nc3sc(C)cn23)cc(OC)c1OC [Compound 19f, (E)-3-(2-methyl-6-(trifluoromethyl)imidazo[2,1-b]thiazol-5-yl)-1-(3,4,5-trimethoxyphenyl)prop-2-en-1-one] |  | GI50 (SR): 0.8 µM |
| COc1ccc(-c2nc3sccn3c2/C=C/C(=O)c2cccs2)cc1 [Compound 16a, (E)-3-(6-(4-methoxyphenyl)imidazo[2,1-b]thiazol-5-yl)-1-(thiophen-2-yl)prop-2-en-1-one] | 169 to 172 |  |
| COc1ccc(C(=O)/C=C/c2c(-c3ccc(F)cc3)nc3sccn23)cc1OC [Compound 8e, (E)-1-(3,4-dimethoxyphenyl)-3-(6-(4-fluorophenyl)imidazo[2,1-b]thiazol-5-yl)prop-2-en-1-one] | 221 to 223 |  |
| O=C(/C=C/c1c(-c2ccc(F)cc2)nc2sccn12)c1ccc(-c2ccccc2)cc1 [Compound 13e, (E)-1-(biphenyl-4-yl)-3-(6-(4-fluorophenyl)imidazo[2,1-b]thiazol-5-yl)prop-2-en-1-one] | 194 to 196 |  |
| Cc1ccc(C(=O)/C=C/c2c(-c3ccc(F)cc3)nc3sccn23)cc1C [Compound 9e, (E)-1-(3,4-dimethylphenyl)-3-(6-(4-fluorophenyl)imidazo[2,1-b]thiazol-5-yl)prop-2-en-1-one] | 210 to 213 |  |
| C1=Nc2c3c(ccc2=N1)=NCS3 [C, imidazobenzothiazole, reference compound] |  | IC50 (MCF7): 32.5 µM; IC50 (MDA-MB-231/ATCC): 43.2 µM |
| COc1ccc(-c2nc3sccn3c2/C=C/C(=O)c2ccc3c(c2)OCO3)cc1 [Compound 11a, (E)-1-(benzo[d][1,3]dioxol-5-yl)-3-(6-(4-methoxyphenyl)imidazo[2,1-b]thiazol-5-yl)prop-2-en-1-one] | 189 to 191 |  |
| O=C(/C=C/c1c(-c2ccc(F)cc2)nc2sccn12)c1ccc2ccccc2c1 [Compound 12e, (E)-3-(6-(4-fluorophenyl)imidazo[2,1-b]thiazol-5-yl)-1-(naphthalen-2-yl)prop-2-en-1-one] | 216 to 218 |  |
| COc1ccc(-c2nc3sccn3c2/C=C/C(=O)c2ccc[nH]2)cc1 [Compound 17a, (E)-3-(6-(4-methoxyphenyl)imidazo[2,1-b]thiazol-5-yl)-1-(1H-pyrrol-2-yl)prop-2-en-1-one] | 177 to 179 |  |
